Experiments:
[1] = biological target: T1, recombinant AtPCO4 (Arabidopsis thaliana, UniProt Q9SJI9); test: AtPCO4 activity toward RAP2.12_2—17 with peptidomimetic, without peptidomimetic-AtPCO4 preincubation; format: biochemical; details: 200 μM peptidomimetic, 0.1 μM AtPCO4, 20 μM RAP2.12_2—17, 25 °C
T1 construct: His tag followed by thrombin site (N); made in house; host or cells: E. coli BL21(DE3)
Description: To test the significance of the peptidomimetic-AtPCO4 preincubation step, the method above was modified so that either 0 or 400 μM peptidomimetic was instead in mixture (ii) (Fig. 9B). Mixtures were again incubated separately at 25 °C for 6 min before being combined in equal volumes, initiating the reaction. Samples were taken and quenched in 5% (v/v) formic acid.
(§1) Spectra were assessed manually in MassHunter Qualitative Analysis B.07.00 software (Agilent) to ensure the correct ion was chosen for peptide oxidation quantification. RapidFire Integrator.exe was used to integrate areas of product and substrate ions (ii) an Acquity Ultra-high performance liquid chromatography system (Waters) coupled to a Xevo G2-XS Q-ToF mass spectrometer (Waters) operated in positive electrospray mode. Instrument parameters, data acquisition and data processing were controlled by MassLynx V4.1 software (Waters). Source parameters were adjusted to maximize sensitivity and minimize fragmentation. […] TOF mass scan range 50.00—2500.00 Da. Spectra were assessed manually in MassLynx V4.1 software (Waters) to ensure the correct ion was chosen for peptide oxidation quantification. MassLynx V4.1 software (Waters) was used to integrate areas of product and substrate ions.
(§2) Integration values obtained by MS were subsequently used to quantify reaction turnover (μmol of substrate oxidized per mg of enzyme), and graphs were generated using Prism 10 (GraphPad).

[2] = biological target: T1, recombinant AtPCO4; test: AtPCO4 activity toward RAP2.12_2—17 after 6 min aerobic preincubation of enzyme with peptidomimetic or control peptide (time course, LC-MS); format: biochemical; details: 200 μM peptide, 6 min aerobic preincubation with 0.1 μM AtPCO4; 20 μM RAP2.12_2—17; 25 °C
Description: (§3) Recombinant AtPCO4 was expressed using BL21(DE3) Escherichia coli cells containing the plasmid pET-28a(+)-His-THROMBIN-AtPCO4, and purified using Ni^2+-affinity and size exclusion chromatography as described in ([59]). WT AtPCO4 along with AtPCO4 Cys190Ala and AtPCO4 ADO loop variants were purified using this method. WT AtPCO4 reactivity toward the peptidomimetics was assessed by incubating (0.1 μM) recombinant enzyme with (200 μM) peptidomimetic in assay buffer (assay buffer: 50 mM Bis-tris propane, 40 mM NaCl, pH 8) supplemented with 20 μM FeSO4, 1 mM ascorbate, 5 mM TCEP, at 25 °C for 20 min prior to quenching in 5% (v/v) formic acid.
(§4) Reaction samples taken at 0 s, 30 s, 60 s, 90 s, 2 min, 5 min, 10 min, 15 min, and 20 min intervals were quenched in 5% (v/v) formic acid.
as §1, §2

[3] = biological target: T1, recombinant AtPCO4; test: AtPCO4 activity toward RAP2.12_2—15 or RAP2.12_2—17 in the presence and absence of peptidomimetic 10 (Fig. S16); format: biochemical; details: 14-mer RAP2.12 substrate, slope of turnover against time (minutes)
Description: as §4
Standard conditions: 5 mM TCEP, 20 μM FeSO4, 1 mM ascorbate, 25 °C. Turnover calculated as μmol RAP2.122—15/17 oxidised per […] of AtPCO4 (data shown is not normalised). Error bars display S.D (n=3).

[4] = system: AtPCO4 Cys190Ala variant; test: Cys190Ala AtPCO4 variant activity toward RAP2.12_2—17 after preincubation with peptidomimetic; format: biochemical, Arabidopsis thaliana
Description: as §3, §4
Figure S15 Investigating the potential formation of a Cys190-Tyr192 activity-enhancing crosslink. […] Standard conditions: 5 mM TCEP, 20 μM FeSO4, 1 mM ascorbate, 25 °C. […] Error bars display S.D (n=3).

[5] = biological target: T1, recombinant AtPCO4; test: Substrate only assay: anaerobic preincubation of AtPCO4 with RAP2.12_2—17; format: biochemical
Description: The assay plate was immediately removed to aerobic conditions, initiating the reaction. Samples were taken at 0 s, 2 min, 5 min, 10 min, 15 min, and 20 min and quenched in 5% (v/v) formic acid.
as §1, §2

Row | Substance | x (slope between 0-5 min), Peptidomimetic rxn, no preincubation [1] | x (slope between 0-5 min), Peptidomimetic rxn / CP rxn [2] | also measured
1 | XGGAIISDFIPPPR [Peptidomimetic 2, 14-mer X… with N-terminal X = homocysteine] | 0.05853 |  | 
2 | XGGAIISDFIPPPR [Peptidomimetic 3, 14-mer X… with N-terminal X = penicillamine] | 0.01063 |  | 
3 | XGGAIISDFIPPPR [Peptidomimetic 1, 14-mer X… mimic of RAP2.12 with N-terminal X = D-Cys] |  | 0.28 | 
4 | XGGAIISDFIPPPR [Peptidomimetic 6, 14-mer X… with N-terminal X = TM3C (thiomorpholine, cyclized thioether)] |  | 0.18 | 
5 | XGGAIISDFIPPPR [Peptidomimetic 4, 14-mer X… with N-terminal X = S-methyl cysteine (linear thioether)] |  | 0.31 | 
6 | XGGAIISDFIPPPR [Peptidomimetic 7, 14-mer X… with N-terminal X = 3MePro, Cys-analogue devoid of an amino group] | 0.03853 | 0.78 | increase in the initial rate of RAP2.12_2—17 oxidation between 0—5 min, Cys190Ala AtPCO4 variant ([4]; 200 μM peptidomimetic, 6 min preincubation with 0.1 μM C190A AtPCO4, 20 μM RAP2.12_2—17, relative to control without peptidomimetic (=1), 25 °C, n = 3): 5.21 fold; Initial rate: x (slope between 0-5 min), Peptidomimetic rxn ([4]; C190A AtPCO4, slope of turnover time course between 0-5 min): 0.4559
7 | RAP2.12_2—17: 16-mer N-terminal L-Cys substrate peptide of AtPCO4 representing AtRAP2.12, purchased from GL Biochem (CGGAIISDFIPPPRSR; UniProt Q9SSA8 2-17, looked up, fragment) |  |  | x (slope between 5-15 min), Preincubation rxn ([5]; 20 μM RAP2.12_2—17, 6 min anaerobic preincubation with 0.1 μM WT AtPCO4): 0.099; x (slope between 5-15 min), Preincubation rxn ([5]; 50 μM RAP2.12_2—17, 6 min anaerobic preincubation with 0.1 μM WT AtPCO4): 0.275; x (slope between 5-15 min), No Preincubation ([5]; 50 μM RAP2.12_2—17, no preincubation with AtPCO4 (anaerobic preparation)): 0.175; x (slope between 5-15 min), Preincubation rxn ([5]; 100 μM RAP2.12_2—17, 6 min anaerobic preincubation with 0.1 μM WT AtPCO4): 0.34; x (slope between 5-15 min), No Preincubation ([5]; 100 μM RAP2.12_2—17, no preincubation with AtPCO4 (anaerobic preparation)): 0.209; x (slope between 5-15 min), Preincubation rxn ([5]; 200 μM RAP2.12_2—17, 6 min anaerobic preincubation with 0.1 μM WT AtPCO4): 0.303; x (slope between 5-15 min), No Preincubation ([5]; 200 μM RAP2.12_2—17, no preincubation with AtPCO4 (anaerobic preparation)): 0.15

Second part, led by results:

Row | x (slope between 0-5 min), Peptidomimetic rxn, no preincubation [1] | x (slope between 0-5 min), Peptidomimetic rxn / CP rxn [2] | Substance | also measured
8 | 0.1162 |  | XGGAIISDFIPPPR [Peptidomimetic 8, 14-mer X… with N-terminal X = Nα-Me-Cys] | 
9 |  | 0.34 | XGGAIISDFIPPPR [Peptidomimetic 13, 14-mer X… with N-terminal X = Pra] | 
10 | 0.07282 |  | XGGAIISDFIPPPR [Peptidomimetic 10, 14-mer X… with N-terminal X = Ser] | x (slope between 0-5 min), Peptidomimetic rxn [3]: 0.6491
11 | 0.03158 |  | XGGAIISDFIPPPR [Peptidomimetic 12, 14-mer X… with N-terminal X = AlG] | 
12 |  | 0.29 | XGGAIISDFIPPPR [Peptidomimetic 11, 14-mer X… with N-terminal X = hSer] | 

Reference: article PMC12630348, “Evidence of an activity-enhancing conformational shift in Arabidopsis thaliana plant cysteine oxidase 4 induced by binding of substrate or substrate-mimics” (The Journal of Biological Chemistry, 2025)
